This is an account of results in patent publication US8865728B2, “Combinations comprising methotrexate and DHODH inhibitors” (Almirall, S.A., priority 2008, dated 2014).

A short description of series [1]: Acute hepatotoxicity assay in Swiss mice (plasma liver markers). Type of series: in vivo. To be noted: for ALT plasma level / AST plasma level / BIL (total bilirubin) plasma level: Swiss mice, single 100 mg/kg intraperitoneal, 24 h after administration. The protocol: Acute hepatotoxicity assays were performed in Swiss mice. Animals received a single administration of either vehicle, or 100 mg/kg of teriflunomide or a compound of the present invention (compounds from the list indicated previously) by intraperitoneal route. Twenty-four hours later, animals were sacrificed and the levels of liver markers AST(aspartate aminotransferase), ALT(alanine aminotransferase) and BIL(total bilirubin) in plasma were determined.

For the next series, the target named is human DHODH (Homo sapiens, UniProt Q02127). The experiment in a line: Inhibition of human DHODH activity assay (DCIP chromogen reduction). Type of series: biochemical. To be noted: chromogen reduction assay with DCIP, human enzyme extract; read-out: hDHODH IC50.
human DHODH, sequence (Q02127 whole entry): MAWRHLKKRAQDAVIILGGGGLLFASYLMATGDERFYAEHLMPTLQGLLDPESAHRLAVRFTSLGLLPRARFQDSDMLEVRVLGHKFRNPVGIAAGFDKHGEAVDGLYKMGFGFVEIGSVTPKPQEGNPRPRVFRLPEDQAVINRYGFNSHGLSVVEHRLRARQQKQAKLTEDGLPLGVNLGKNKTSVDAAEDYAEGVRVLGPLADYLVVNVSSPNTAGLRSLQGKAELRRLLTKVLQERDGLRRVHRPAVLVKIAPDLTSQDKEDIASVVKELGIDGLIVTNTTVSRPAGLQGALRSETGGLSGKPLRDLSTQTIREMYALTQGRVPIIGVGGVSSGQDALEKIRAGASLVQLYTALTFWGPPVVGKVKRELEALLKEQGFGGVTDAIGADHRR
In series [2] the test system is rat adjuvant-induced arthritis model (AIA). The experiment in a line: Efficacy in rat adjuvant-induced arthritis model (AIA), curative protocol. The format is in vivo, Wistar rats. To be noted: arthritic rats, oral once a day, MTX 0.05 mg/Kg/day, AUC of right paw volumes days 10-21 vs vehicle; for % AUC inhibition right paw: Teriflunomide 3 mg/Kg/day, one experiment with 6 animals. The protocol: The effect of DHODH inhibitor compounds were tested in combination with methotrexate (0.05 mg/Kg/day) in the rat adjuvant-induced arthritis model (AIA) in animals with established disease (curative protocol). Briefly, Complete Freund Adjuvant (CFA) was injected into the left hind footpad of Wistar rats, and 10 days later the swelling of the two rear paws was measured with a plethysmometer. […] Compounds were administered orally once a day for 10 days and paw volumes were determined every two days up to day 21.

Molecules are shown by their SMILES. “Also recorded” adds a separate entry of the source.

A word on the IC50: it is the concentration needed to halve the response being measured.

Method for human DHODH: DHODH activity and its inhibition were studied using a chromogen reduction assay with DCIP (2,6-dichlorophenol-indophenol).
Enzyme extracts (8 μl, ˜1.5 μg of human protein) were incubated in 96-well plates. The assay mixture (200 μl) contained 200 μM CoQD, 100 μM L-DHO, 120 μM DCIP in the assay buffer (100 mM HEPES pH 8.0, 150 mM NaCl, 10% Glicerol, 0.05% Triton X-100) and 2 μl of test compound.
The reaction was initiated by adding the enzyme and then incubated for 10 min at room temperature before measuring DCIP reduction by counting a decrease in absorbance at 600 nm using standard instrumentation (Spectramax).
All reactions were carried out in duplicate and graphs, determining IC50 values for each compound, were plotted using the ABase software.

`CCOc1cccc(-c2cc(F)c(Nc3ncccc3C(=O)O)c(F)c2)c1` [Compound 19, 2-(3′-Ethoxy-3,5-difluorobiphenyl-4-ylamino)nicotinic acid]: in series [1], the ALT plasma level came to 60 IU/l, the AST plasma level came to 92 IU/l and the “BIL (total bilirubin) plasma level” value turned out to be 0.05 mg/dL.

For the compound `O=C(O)c1cccnc1Nc1ccc(-c2cccc(OC(F)(F)F)c2)cc1F` [Compound 3, 2-(3-Fluoro-3′-(trifluoromethoxy)biphenyl-4-ylamino)nicotinic acid], in series [1], the ALT plasma level is reported as 52 IU/l, the AST plasma level is 83 IU/l and the “BIL (total bilirubin) plasma level” value is 0.01 mg/dL.

For the compound `CCOc1cccc(-c2ccc(Nc3ncccc3C(=O)O)c(OC(F)(F)F)c2)c1` [Compound 4, 2-(3′-Ethoxy-3-(trifluoromethoxy)biphenyl-4-ylamino)nicotinic acid], in series [1], the ALT plasma level is on record as 70 IU/l, the AST plasma level came out at 108 IU/l and the “BIL (total bilirubin) plasma level” value came to 0.05 mg/dL.

Consider `COc1cccc(-c2ccc(Nc3cnccc3C(=O)[O-])c(OC(F)(F)F)c2)c1.[Li+]` [Compound 23, Lithium 3-(3′-methoxy-3-(trifluoromethoxy)biphenyl-4-ylamino)isonicotinate], for which, in series [1], the ALT plasma level worked out at 35 IU/l, the AST plasma level stood at 72 IU/l and the “BIL (total bilirubin) plasma level” value came out at 0 mg/dL.

For the compound `COc1cccc(-c2cc(F)c(Nc3ncc(C)cc3C(=O)O)c(F)c2)c1` [Compound 35, 2-(3,5-Difluoro-3′-methoxybiphenyl-4-ylamino)-5-methylnicotinic acid], the IC50 at human DHODH worked out at 12 nM.

Take `CCOc1cccc(-c2ccc(Nc3ncccc3C(=O)O)c(F)c2)c1` [Compound 2, 2-(3′-Ethoxy-3-fluorobiphenyl-4-ylamino)nicotinic acid]: in series [1], the ALT plasma level came to 35 IU/l, the AST plasma level worked out at 57 IU/l and the “BIL (total bilirubin) plasma level” value is 0 mg/dL.

Turning to `Cc1c(-c2ccccc2Cl)cc(F)c(Nc2ncccc2C(=O)O)c1F` [Compound 57, 2-(2′-chloro-3,5-difluoro-2-methylbiphenyl-4-ylamino)nicotinic acid], in series [1], the ALT plasma level came out at 60 IU/l, the AST plasma level came out at 109 IU/l and the “BIL (total bilirubin) plasma level” value is 0.06 mg/dL.

Consider `COc1cccc(-c2ccc(Nc3ncccc3C(=O)O)c(F)c2)c1` [Compound 1, 2-(3-Fluoro-3′-methoxybiphenyl-4-ylamino)nicotinic acid], for which, in series [1], the ALT plasma level came out at 99 IU/l, the AST plasma level is 84 IU/l and the “BIL (total bilirubin) plasma level” value worked out at 0.03 mg/dL.

With `O=C(O)c1cccnc1Nc1c(F)cc(-c2cccc(OC3CC3)c2)cc1F` [Compound 47, 2-(3′-cyclopropoxy-3,5-difluorobiphenyl-4-ylamino)nicotinic acid], in series [1], the ALT plasma level came out at 66 IU/l, the AST plasma level is 91 IU/l and the “BIL (total bilirubin) plasma level” value amounted to 0.14 mg/dL.

As for `Cc1c(-c2ccccc2)cc(F)c(Nc2ncccc2C(=O)O)c1F` [Compound 48, 2-(3,5-difluoro-2-methylbiphenyl-4-ylamino)nicotinic acid], in series [1], the ALT plasma level is listed as 44 IU/l, the AST plasma level is given as 95 IU/l and the “BIL (total bilirubin) plasma level” value stood at 0.08 mg/dL.

With `CN(Cc1cnc2nc(N)nc(N)c2n1)c1ccc(C(=O)N[C@@H](CCC(=O)O)C(=O)O)cc1` [MTX, Methotrexate], the “% AUC inhibition right paw” value in series [2] is 24%. For the same compound, the “% inhibition of the inflammation (AUC) Right paw” value in series [2] (compound A 3 mg/Kg/day, mean of two independent experiments) is 37%.

As to `COc1cccc(-c2cc(F)c(Nc3ncccc3C(=O)O)c(F)c2)c1` [Compound 20, 2-(3,5-Difluoro-3′-methoxybiphenyl-4-ylamino)nicotinic acid], in series [1], the ALT plasma level is 73 IU/l, the AST plasma level is 95 IU/l and the “BIL (total bilirubin) plasma level” value turned out to be 0 mg/dL.

Consider `C/C(O)=C(\C#N)C(=O)Nc1ccc(C(F)(F)F)cc1` [Teriflunomide, reference compound], for which the “% AUC inhibition right paw” value in series [2] is recorded as 56%. In addition, in series [1], the ALT plasma level was 423 IU/l, the AST plasma level amounted to 542 IU/l and the “BIL (total bilirubin) plasma level” value was found to be 0.5 mg/dL. The “change in plasma liver markers (ALT, AST, BIL) compared to vehicle-treated mice” value in series [1] (mice, intraperitoneal route, 100 mg/kg) is “dramatic increase in the three liver markers; also recorded: drastic increase in the levels of transaminases and bilirrubin in plasma”.
